Measurements published in article PMC4358979, “Structure-Based Virtual Screening and Discovery of New PPARδ/γ Dual Agonist and PPARδ and γ Agonists” (PLoS ONE, 2015).

Target: T1, PPARδ (Homo sapiens, UniProt Q03181)
T1 construct: gene PPARD; pcDNA3-PPARδ expressed in HeLa cells
T1 sequence (Q03181 1-441): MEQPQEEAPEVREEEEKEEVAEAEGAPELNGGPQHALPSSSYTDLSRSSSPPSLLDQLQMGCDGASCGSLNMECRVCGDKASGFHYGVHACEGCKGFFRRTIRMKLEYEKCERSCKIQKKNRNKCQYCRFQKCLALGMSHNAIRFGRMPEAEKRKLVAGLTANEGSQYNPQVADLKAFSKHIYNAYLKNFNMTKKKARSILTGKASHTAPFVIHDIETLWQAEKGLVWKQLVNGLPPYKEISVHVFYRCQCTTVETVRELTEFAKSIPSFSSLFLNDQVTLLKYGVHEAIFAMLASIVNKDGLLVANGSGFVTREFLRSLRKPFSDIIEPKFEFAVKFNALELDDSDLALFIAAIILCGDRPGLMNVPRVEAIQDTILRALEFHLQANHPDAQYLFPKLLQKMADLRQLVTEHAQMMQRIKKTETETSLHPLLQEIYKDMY
Experiment: PPRE-luciferase transactivation assay in HeLa cells, single concentration ([…])
Format: cell-based
Details: read-out: PPRE-luciferase transactivation assay in HeLa cells, single concentration (10 μM)

For `Cc1ccc(Cn2c(=N)n(CC(=O)O)c3ccccc32)cc1` [compound 5, [2-imino-3-(4-methylbenzyl)-2,3-dihydro-1H-benzimidazol-1-yl]acetic acid], the fold induction at 10 µM was 6.4.
